From publication PMC6309922, “(ADP-ribosyl)hydrolases: Structural Basis for Differential Substrate Recognition and Inhibition” (Cell Chemical Biology, 2018)
Read-outs that look alike come from different tables or passages of the source. Marks after values point to notes of the source that are not given here.

Assays:
hARH3 [1] = molecular target: T1, hARH3 (Homo sapiens, UniProt Q9NX46); test: Differential scanning fluorimetry (DSF) with metal salts, MgII-depleted enzyme; type: binding; conditions: for TM / ΔTM: 100 μM metal salt; for TM: n = 3; for ΔTM: ΔTM = TM (salt) - TM (apo)
T1 construct: made in house; host or cells: E. coli Rosetta (DE3)
T1 sequence (Q9NX46 1-363): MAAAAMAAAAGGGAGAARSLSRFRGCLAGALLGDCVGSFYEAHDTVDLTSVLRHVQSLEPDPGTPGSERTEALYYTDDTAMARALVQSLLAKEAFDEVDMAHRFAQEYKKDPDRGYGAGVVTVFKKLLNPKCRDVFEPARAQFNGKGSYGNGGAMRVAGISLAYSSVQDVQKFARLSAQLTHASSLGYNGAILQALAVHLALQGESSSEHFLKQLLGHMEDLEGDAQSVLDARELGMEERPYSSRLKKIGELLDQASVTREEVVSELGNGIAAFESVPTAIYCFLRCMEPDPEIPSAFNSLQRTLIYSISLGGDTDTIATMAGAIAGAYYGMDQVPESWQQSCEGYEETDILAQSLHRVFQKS

LchARH3 [2] = molecular target: T2, LchARH3 (Latimeria chalumnae, UniProt H3BCW1); test: biochemical; type: binding; conditions: for TM / ΔTM: 100 μM metal salt; for TM: n = 6; for ΔTM: ΔTM = TM (salt) - TM (apo)
T2 construct: LchARH3 (GenBank: XP_005988572; aa residues 10-362); made in house; host or cells: E. coli Rosetta (DE3)
T2 sequence (H3BCW1 10-356 limits assumed): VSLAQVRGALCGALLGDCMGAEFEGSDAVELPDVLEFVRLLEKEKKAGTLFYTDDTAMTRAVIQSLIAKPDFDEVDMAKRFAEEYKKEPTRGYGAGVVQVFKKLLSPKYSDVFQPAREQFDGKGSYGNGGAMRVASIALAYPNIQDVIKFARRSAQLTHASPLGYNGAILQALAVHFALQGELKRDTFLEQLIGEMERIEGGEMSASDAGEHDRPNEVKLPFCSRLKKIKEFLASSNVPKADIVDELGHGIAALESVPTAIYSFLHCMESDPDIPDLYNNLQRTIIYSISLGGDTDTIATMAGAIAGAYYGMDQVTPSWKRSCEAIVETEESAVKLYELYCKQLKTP
Experimental: LchARH3 WT was purified as described above and dialysed against 50 mM TrisHCl (pH 8), 200 mM NaCl, 20 mM EDTA, 1 mM DTT and 5% (v/v) glycerol. EDTA was removed by dialysing twice against 50 mM TrisHCl (pH 8), 200 mM NaCl, 1 mM DTT and 5% (v/v) glycerol. Each dialysis step was carried out with a minimum 1:1,000 ratio of sample to buffer. Only samples with purity >90% (as assessed by SDS-PAGE) were used for subsequent DSF experiments.
Assays were performed essentially as described earlier ([Vivoli et al., 2014]). Briefly, 10 μM LchARH3 wt EDTA-treated, 10x SYPRO® Orange (ThermoFisher Scientific) and indicated amounts of metal salts in assay buffer (50 mM TrisHCl [pH 8], 200 mM NaCl and 1 mM DTT) were thermal denaturated in MicroAmp® Fast plates (Life Technologies) in a StepOne qPCR instrument (ThermoFisher Scientific). The initial temperature of 24°C was held for 2.5 min, followed by a ramp to 97.5°C at 0.5°C/45 sec and then 2 min pause at 98°C. Curves were fit using GraphPad Prism 6. For analysis recorded data were cropped two data points after recorded fluorescence signal maximum and the resulting curves fitted using the Boltzman equation F=BOTTOM+(TOP−BOTTOM)/1+e^(TM−T/SLOPE)
with TM, melting temperature; T, temperature; SLOPE, steepness of curve. For the inference of the binding constant the determined TM’s were plotted and analysed using a single binding site model: TM=BOTTOM+((TOP−BOTTOM)∗(1−(P−Kd−M+(P+M+Kd)^2∗(4∗P∗M)/2P))) with P, protein concentration; M, metal salt concentration; Kd dissociation constant.

hARH3 [3] = molecular target: T1, hARH3; test: Enzyme kinetics and inhibition assay with fluorogenic substrate TFMU-ADPr; type: biochemical; conditions: triplicate; for IC50: 20 μM TFMU-ADPr as substrate
Experimental: (§1) Reactions were performed as described in ([Drown et al., 2018]). Briefly, reactions were carried out in 384-well plates using 50 mM Na2HPO4 (pH 7.4), 10 mM MgCl2, 5 mM DTT and indicated amounts of TFMU-ADPr as substrate. After shaking for 5 s, fluorescence was recorded at 5 s intervals for 15 min on a Molecular Devices SpectraMax M3 microplate reader (reader settings: λEx 385 nm, λEm 502 nm, λcutoff 495 nm, 6 reads/well, low gain). Initial reaction rates were determined by fitting the linear portions of reaction progress curves. Initial rates were plotted against substrate concentration and fit to the Michaelis-Menton equation using a non-linear curve-fitting algorithm in GraphPad Prism 6.
(§2) For inhibitor studies enzymes and inhibitor were pre-incubated for 5 min at RT before addition of substrate. Percent inhibition was calculated with the no enzyme and no inhibitor reactions as positive and negative controls, respectively. Dose-response curves were fit using GraphPad Prism 6.

LchARH3 [4] = molecular target: T2, LchARH3; type: biochemical; conditions: for support of hydrolysis of Ser-ADPr and PAR by metal (in words): MgII-stripped enzyme, 100 μM metal salt; for inhibitory potential against ARH3 (in words): serine MARylated histone H3 peptide as substrate, 1-1,000 μM compound
Experimental: (§3) ARH3 activity assays were performed essentially as described ([Fontana et al., 2017]). Briefly, H3 peptide (aa 1-20, biotinylated) was modified by incubation with 0.5 μM PARP1, 1 μM HPF1 and activated DNA (Trevigen) in assay buffer (50 mM TrisHCl [pH 8], 200 mM NaCl, 2 mM MgCl2, 1 mM DTT, 10 μM NAD^+ and 1 μCi ^32P-NAD^+). Reactions were incubated for 30 min at 30°C and stopped by addition of 1 μM olaparib. Reaction were further incubated in presence of 1 μM hydrolase for 1 h at 30°C. Reactions were stopped by addition of LDS sample buffer (Life Technologies) and incubation at 95°C for 3 min. Samples were then analysed by SDS-PAGE, immunoblot and autoradiography. For inhibitor study the ARH3 was pre-incubated with indicated amount of inhibitor for 5 min at RT.

hARH3 [5] = molecular target: T1, hARH3; test: De-modification of Ser-ADP-ribosyl H3 peptide and degradation of PAR (32P autoradiography); type: biochemical; conditions: for support of hydrolysis of Ser-ADPr and PAR by metal (in words): MgII-stripped enzyme, 100 μM metal salt
Experimental: as §3

hARH1 [6] = molecular target: T3, hARH1 (Homo sapiens, UniProt P54922); test: Enzyme kinetics and inhibition assay with fluorogenic substrate TFMU-ADPr; type: biochemical; conditions: for IC50: 20 μM TFMU-ADPr as substrate, triplicate
T3 construct: made in house; host or cells: E. coli Rosetta (DE3)
T3 sequence (P54922 whole entry): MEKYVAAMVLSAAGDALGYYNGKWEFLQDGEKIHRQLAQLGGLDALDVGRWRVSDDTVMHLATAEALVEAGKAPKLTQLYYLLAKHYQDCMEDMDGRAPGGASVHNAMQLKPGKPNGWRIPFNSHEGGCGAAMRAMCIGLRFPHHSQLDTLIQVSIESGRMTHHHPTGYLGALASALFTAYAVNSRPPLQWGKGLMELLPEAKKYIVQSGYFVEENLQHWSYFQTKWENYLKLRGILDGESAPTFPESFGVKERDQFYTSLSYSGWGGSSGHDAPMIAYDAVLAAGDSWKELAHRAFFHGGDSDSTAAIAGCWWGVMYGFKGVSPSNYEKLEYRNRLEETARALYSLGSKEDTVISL
Experimental: as §1, §2

hARH1 [7] = molecular target: T3, hARH1; test: Removal of Arg-ADP-ribosylation from HeLa cell extracts (32P autoradiography); type: biochemical; conditions: arginine ADP-ribosylated whole cell lysate as substrate; 1-1,000 μM compound
Experimental: In vitro modification of proteins from HeLa cell extracts by mARTC2.2 recombinant protein was performed, with minor modifications, as described earlier ([Palazzo et al., 2016]). Briefly, cells were grown to confluence on two 10-cm dishes, washed thrice with 50 mM TrisHCl (pH 7.5) and 200 mM NaCl and lysed in 800 μL of 50 mM Tris-HCl pH 7.5, 150 mM NaCl, 0.5% Triton X-100, 0.2 mM DTT and 1 μM olaparib at 4°C supplemented with cOmplete™ EDTA-free protease inhibitor (Roche). The cell extract was clarified by centrifugation. 12 uL of extract per reaction were supplemented with 15 mM MgCl2, 1 μM mARTC2.2 and 1 μCi ^32P-NAD^+ and incubated for 15 min at 30°C. Lysates were further incubated in presence of hydrolases for 45 min at 30°C. Reactions were stopped by addition of LDS sample buffer (Life Technologies) and incubation at 95°C for 3 min. Samples were then analysed by SDS-PAGE and autoradiography. For inhibitor study the hARH1 was pre-incubated with indicated amount of inhibitor for 5 min at RT.

hARH3 [8] = molecular target: T1, hARH3; set-up: method as in Drown et al., 2018; conditions: in situ generation of Arg-ADPr; ref Drown et al., 2018; cited from earlier work
[9] = DSF, 16 metal salt dilutions, single-site ligand-binding model, triplicate ± SD, read-out: Kd
[10] = DSF, rounded, read-out: Kd of magnesium on its own

## [Cl-].[Li+] [LiCl, Lithium chloride]
hARH3 [1]
  TM: 46.6 ± 0.15 °C
  ΔTM: −0.1 °C
LchARH3 [2]
  TM: 40.1 ± 0.16 °C
  ΔTM: −0.1 °C

## [Ca+2] [CaCl2, Calcium chloride dehydrate]
hARH3 [3]
  IC50: 13.7 µM
hARH3 [1]
  TM: 50.1 ± 0.08 °C
  ΔTM: 3.4 ^d °C
hARH3 [1]; [9]
  Kd: 266 ± 42 µM
LchARH3 [2]
  TM: 44.4 ± 0.08 °C
  ΔTM: 4.2 ^d °C
LchARH3 [2]; [9]
  Kd: 431 ± 68 µM
LchARH3 [4]; de-MARylation assay in presence of 1 mM MgCl2 or 1 mM MnCl2, 1-2,000 μM CaCl2
  inhibition of ARH3 by calcium (in words): inhibitor of magnesium-, but not manganese-, supplemented ARH3

## [Mg+2] [MgCl2, Magnesium chloride hexahydrate]
hARH3 [1]
  TM: 46.7 ± 0.11 °C
  ΔTM: 0.0 °C
hARH3 [1]; [9]
  Kd: 5410 ± 322 µM
hARH3 [1]; [10]
  Kd: ~5400 µM
LchARH3 [2]
  TM: 41.4 ± 0.17 °C
  ΔTM: 1.3 ^d °C
LchARH3 [2]; [9]
  Kd: 2300 ± 257 µM
LchARH3 [2]; [10]
  Kd: ~2300 µM
hARH3 [5]
  support of hydrolysis of Ser-ADPr and PAR by metal (in words): able to support hydrolysis of Ser-ADPr and PAR
LchARH3 [4]; EDTA-treated LchARH3, 1-1000 µM MgCl2
  apparent concentration needed to restore activity: ~50 µM
LchARH3 [4]
  support of hydrolysis of Ser-ADPr and PAR by metal (in words): able to support hydrolysis of Ser-ADPr and PAR

## Nc1ncnc2c1ncn2C1OC(COP(=O)(O)OP(=O)(O)OCC2CC(O)CN2)C(O)C1O (centres unmarked) [ADP-HPM]
hARH1 [6]
  IC50: 164 µM
hARH1 [7]
  inhibitory potential against hARH1 (in words): only minor inhibitor potential
LchARH3 [4]
  inhibitory potential against ARH3 (in words): only minor inhibitor potential

## O.O.O.O.O.O.[Cl][Cr]([Cl])[Cl] [CrCl3, Chromium(III) chloride hexahydrate]
hARH3 [1]
  TM: 46.5 ± 0.04 °C
  ΔTM: −0.3 °C
LchARH3 [2]
  TM: 40.1 ± 0.21 °C
  ΔTM: −0.1 °C

## Nc1ncnc2c1ncn2[C@@H]1O[C@H](CO[P@](=O)(O)O[P@@](=O)(O)OC[C@H]2NC[C@H](O)[C@@H]2O)[C@@H](O)[C@H]1O [ADP-HPD, adenosine diphosphate (hydroxymethyl)pyrrolidinediol]
hARH1 [6]; IC50 conditions, 20 μM TFMU-ADPr
  inhibition of hARH1 (in words): no inhibition
hARH1 [7]
  inhibitory potential against hARH1 (in words): only mild activity
LchARH3 [4]
  inhibitory potential against ARH3 (in words): inhibited

## Nc1ncnc2c1ncn2C1OC(COP(=O)(O)OP(=O)(O)OCC2OC(O)C(O)C2O)C(O)C1O (centres unmarked) [ADPr, ADP-ribose]
hARH1 [6]
  IC50: 228 µM
hARH3 [3]
  IC50: 3.2 µM
hARH3 [3]; TFMU-ADPr substrate
  Ki: 1.08 ± 0.08 µM
hARH1 [7]
  inhibitory potential against hARH1 (in words): only mild activity
hARH3 [5]; serine MARylated histone H3 peptide as substrate, 1-1,000 μM compound
  inhibitory potential against ARH3 (in words): inhibited
LchARH3 [4]
  inhibitory potential against ARH3 (in words): inhibited

## [Cl-].[Cl-].[Zn+2] [ZnCl2, Zinc chloride]
hARH3 [1]
  TM: 44.1 ± 0.07 °C
  ΔTM: −2.6 ^d °C
LchARH3 [2]
  TM: 37.4 ± 0.25 °C
  ΔTM: −2.8 ^d °C

## O.O.O.O.O.O.[Cl-].[Cl-].[Co+2] [CoCl2, Cobalt(II) chloride hexahydrate]
hARH3 [1]
  TM: 46.7 ± 0.09 °C
  ΔTM: 0.0 °C
LchARH3 [2]
  TM: 39.6 ± 0.28 °C
  ΔTM: −0.6 °C

## NC(=NCCC[C@H](N)C(=O)O)N[C@H]1O[C@H](COP(=O)(O)OP(=O)(O)OC[C@H]2O[C@@H](n3cnc4c(N)ncnc43)[C@H](O)[C@@H]2O)[C@@H](O)[C@H]1O [Arg-ADPr, arginine-ADP-ribose]
hARH3 [8]
  inhibition of hARH3 (in words): potent, cellular inhibitor of hARH3

## O.O.O.O.O.O.[Cl][Ni][Cl] [NiCl2, Nickel(II) chloride hexahydrate]
hARH3 [1]
  TM: 46.4 ± 0.09 °C
  ΔTM: −0.3 °C
LchARH3 [2]
  TM: 40.7 ± 0.22 °C
  ΔTM: 0.5 °C

## [Mn+2] [MnCl2, Manganese(II) chloride tetrahydrate]
hARH3 [1]
  Kd: 208 ± 12 µM
  TM: 52.6 ± 0.09 °C
LchARH3 [2]
  Kd: 175 ± 24 µM
  TM: 51.5 ± 0.23 °C
hARH3 [5]
  support of hydrolysis of Ser-ADPr and PAR by metal (in words): able to support hydrolysis of Ser-ADPr and PAR
LchARH3 [4]
  support of hydrolysis of Ser-ADPr and PAR by metal (in words): able to support hydrolysis of Ser-ADPr and PAR

## [Cl][Cu][Cl] [CuCl2, Copper(II) chloride]
hARH3 [1]
  TM: 40.5 ± 0.10 °C
  ΔTM: −6.2 ^d °C
LchARH3 [2]
  TM: 39.0 ± 0.21 °C
  ΔTM: −1.2 ^d °C
